# Non-standard residues stand in square brackets, D forms with d. Residues, ends and D or L forms follow the SMILES beside them. *: point of attachment. NHPhenethyl = c1ccc(CCN*)cc1; pGlu = O=C1CC[CH](C(=O)O)N1
row,Compound,melting point [°C]
1,COc1ccc2cc([C@H](C)C(=O)NNC(=O)CCCO)ccc2c1,149 to 151
2,Cc1nc(NC(=O)c2cnn3c(C(F)(F)F)cc(-c4ccc(C(F)(F)F)cc4)nc23)sc1S(=O)(=O)NC(C)(CO)CO,250
3,CN(c1cccc2cc(C3=NCC(CC(N)=O)S3)[nH]c12)S(=O)(=O)c1cccs1 (centres undefined),193 to 194
4,CCc1csc(Cc2ccc(NC(=O)/C=C/c3cnn(C)c3-c3ccc(F)cc3)cc2)n1,211 to 212
5,COC(=O)c1ccc(OCCNC(=O)C2Cc3ccccc3N2S(=O)(=O)c2ccc(-c3cccc(C(F)(F)F)c3)cc2)c(F)c1 (centres undefined),65 to 70
6,COc1cc(C)c(C)c2c1CCC2=O,127 to 128
7,COC(=O)c1ccc(C#CCc2cccc3c2OCCC3(C)C)cc1O,92 to 93
8,CCCC(=O)c1cnc2c(F)cccc2c1Cl,57 to 60
9,CC(C(=O)C=Cc1ccccc1)C(=O)C=Cc1ccccc1 (centres undefined),154 to 157
10,CC1(CO)Cc2c(cc(C(C)(C)C)c(O)c2C(C)(C)C)O1 (centres undefined),126 to 128
11,CCCCC12CCC3C4CCC(=O)C=C4CCC3C1CCC2O (centres undefined),169 to 170
12,CCCc1ccc2oc(C(=O)c3ccncc3)c(C)c2c1O,203 to 205
13,CC(C)(C)OC(=O)N[C@@H](CC1CCCCC1)[C@@H]1CO1,58 to 59.5
14,Cc1cc(Oc2cccc(C(F)(F)F)c2)nn1C(=O)Nc1ccc(F)c(F)c1F,102 to 104
15,CC(Oc1ccc([N+](=O)[O-])cc1F)c1c(Cl)cccc1Cl (centres undefined),120
16,COc1ccccc1OCCCCCOc1ccc(C(=N)N)cc1,96 to 98
17,O=C(O)c1cc([N+](=O)[O-])ccc1Nc1ccc(CCc2ccc(Cl)c(Cl)c2)cc1,214 to 217
18,Nc1nc2ccc(C(O)C(CO)N3CCC(Cc4ccccc4)CC3)cc2s1 (centres undefined),155 to 157
19,Brc1ccc(Cn2cncn2)cc1,77 to 79
20,CCCCCCN(Cc1ccc2ccccc2n1)C(Nc1cc(C(C)(C)C)c(O)c(C(C)(C)C)c1)=C1C(=O)OC(C)(C)OC1=O,161 to 163
21,CC(C)(C)c1cc(-c2nnc(N)o2)cc(C(C)(C)C)c1O,244 to 245
22,Cc1c(O)nc2ccccc2c1C(=O)O,> 300
23,NC(=O)c1nn(S(=O)(=O)c2ccccc2)c2ccccc12,208 to 210
24,Oc1cccc(-c2n[nH]c3ncnc(Nc4cccc(Cl)c4)c23)c1,118 to 119
25,CN1C(=O)C(c2cccc(-c3cccnc3F)c2)(c2cnn(CCF)c2)N=C1N (centres undefined),195 to 197

row,Compound,melting point [°C]
1,CCc1ccc2c(C3=C(c4cn(C)c5ccccc45)C(=O)NC3=O)cn(C)c2c1,247 to 248
2,CC(=O)Nc1cc(C)cc(Br)n1,190
3,COc1ccc(CCc2c(Cc3ccccc3)sc3ccccc23)cc1,68 to 70
4,Cc1sc(-n2cccc2C=O)c(C#N)c1C,154
5,N#CNc1ccccc1-c1ccc(F)cc1,95 to 96
6,CCN1CCc2ccc(Nc3ncc(Cl)c(Nc4cc(Cl)ccc4C(=O)NC)n3)cc2CC1,223
7,S=C(Nc1cccc(Cl)c1)N1CCSC1=Nc1cccc(Cl)c1,121 to 123
8,O=C(CN1CCNCC1)Nc1ccccc1,71 to 72
9,CC(=O)OC1(C(=O)CCl)CCC2C3CCC4=CC(=O)CCC4(C)C3CCC21C (centres undefined),219 to 221
10,CCOc1ccc(-c2c(S(C)(=O)=O)ccc(C(=O)c3cnn(C(C)(C)C)c3O)c2C)cc1,110
11,CC(N)Cn1ncc2ccc3c(c21)C(N)C(O)CO3 (centres undefined),84 to 88
12,O=C1OC2(CCN(C(=O)Nc3ncc(-c4ccccc4)cn3)CC2)c2c(F)cccc21,244 to 246
13,O=[N+]([O-])c1cc(I)cc(CO)c1,85.5 to 86.5
14,O=C(NC1CCN(CCOC(=O)c2ccccc2)CC1)c1ccccc1,139 to 140
15,Clc1ccc2ncc(Br)n2n1,132 to 137
16,COc1cc(Nc2c([N+](=O)[O-])ccc(Cl)c2C(=O)O)cc(OC)c1,174 to 177
17,O=C(Nc1ccc2ccc(Oc3ccccc3)nc2n1)C1=CCC=CC1,95
18,Cn1c2ccccc2c2ccc3ccccc3c21,167 to 169
19,Cc1noc(-c2ccccc2)c1CCC(N)=O,149 to 151
20,O=c1[nH]c2cc3c(cc2nc1-c1ccccc1)OC(F)(F)O3,291 to 292
21,CCc1n[nH]c(CCOc2ccc(S(C)(=O)=O)cc2)c1Oc1cc(C#N)cc(C#N)c1,88 to 90
22,CNS(=O)(=O)CCc1ccc(N)cc1,101 to 105
23,CC1CCCC(C)C1=CC1C(C(=O)O)C1(C)C (centres undefined),96
24,O=S(Cc1ccccc1)C1CCN(Cc2ccccc2)CC1 (racemic),123
25,CC(C)(C)ON=C1CC(c2ccc(S(C)(=O)=O)cc2)=C1c1ccccc1,150 to 152

row,Compound,melting point [°C]
1,CN1C=C2c3ccccc3Cc3ccccc3C2C1 (centres undefined),128 to 131
2,O=Cc1ccc(I)nc1,141
3,CCSc1cn(-c2ccccn2)c2c1C(=O)CC(C)(C)C2,158 to 159
4,COc1ccc2nc3ccc(OC)cc3c(Nc3cccc(COC(=O)NC(C)C)c3)c2c1,148 to 149
5,COc1c(C)cnc(CS(=O)c2nc3c(C)c(OC)c(C)cc3[nH]2)c1C (centres undefined),137
6,COc1ccc2cc([C@H](C)C(=O)NOCC(=O)N3CCC(CO[N+](=O)[O-])CC3)ccc2c1,45 to 47
7,CC(C)(C)OC(=O)N1CCC[C@H]1Cn1ccc2c3ccn(Cc4ccc(F)cc4)c(=O)c3ccc21,144 to 145
8,Nc1nc2ccccc2c2sc(C=Cc3ccccc3)nc12,239 to 241
9,Cc1c(-c2ccco2)c(N2CC[C@H](N(C)C)C2)c2oc(C3CC3)nc2c1C#N,158 to 159
10,c1coc(-c2nnc(-n3ccnc3)c3ccccc23)c1,151 to 152
11,Cc1oncc1C(=O)Nc1ccc(-n2nc(C(F)(F)F)cc2C2CC2)cc1,90 to 95
12,N#CCCCOc1ccc(C(=O)O)cc1,193 to 194
13,NC(=O)CC(NC(=O)C(CO)NC(=O)CNC(=O)CNC(=O)C1CCC(=O)N1)C(=O)NC(Cc1ccccc1)C(=O)NCCc1ccccc1 (centres undefined) ([pGlu]GGSNF-NHPhenethyl; configuration not given here),209 to 211
14,CCCCc1ccc(NC(=O)CCc2ccccc2)c(=O)n1CC(=O)O,132 to 134
15,N=C(Nc1ccccc1)Nc1ncccc1OCc1c(Cl)cccc1Cl,163 to 165
16,Cc1ccc2[nH]c(NC(=O)c3ccccc3)nc(=O)c2c1,240 to 242
17,CCn1cc(C(=O)O)c(=O)c2cc(F)c(N3CC4CCC3CN4)c(F)c21 (centres undefined),255 to 257
18,CC(C)(N)c1ccc(-c2nc(Nc3ccc(-n4ccnn4)cc3)ncc2C#N)cc1,139 to 140
19,Cc1c2cc(C(=O)O)[nH]c2cc2c1sc1ccccc12,271 to 272
20,COc1cc(OC)nc(Oc2cccc(Cl)c2C(=O)O)n1,123 to 126
21,O=[N+]([O-])c1ccnc(N2CCNCC2)c1,92 to 93
22,O=c1[nH]c2cc(Cl)ccc2c(O)c1-c1cccc(Oc2ccccn2)c1,269 to 271
23,C=CCn1cnnc1-c1c(Cl)c(Cl)cc2nc(OC)c(OC)nc12,206 to 208
24,Cc1ccc(-c2ccc3c(c2)C=C(C(=O)Nc2ccc(C(=O)C4CCCCN4C(=O)OC(C)(C)C)cc2)CCO3)cc1 (centres undefined),223 to 224
25,C[Si](C)(C)CCCCCCCCCCCCCCNc1ccc(C(=O)O)cc1,105 to 107

row,Compound,melting point [°C]
1,Cc1nc(NC(=O)c2cnn3c(C(F)(F)F)cc(-c4ccc(Cl)c(Cl)c4)nc23)sc1S(=O)(=O)NC(C)(C)CO,265
2,O=C1c2ccccc2COc2ccc(Br)cc21,132 to 134
3,COc1cc2c(=O)n(CCOCCO)c3c4cc5c(cc4ncc3c2cc1OC)OCO5,235
4,CN(C)c1ccc2[nH]c(-c3cc(NC(=O)c4cccc(OCCCCCCC(=O)NO)c4)ccc3Cl)nc2c1,140 to 142
5,CC(OCc1cc2nc(Cl)ccc2n1S(=O)(=O)c1ccccc1)C(=O)O (centres undefined),150
6,CN(C(=O)NC(=O)c1ccccc1)C(=O)Nc1nc(C(Cl)(Cl)Cl)ns1,70
7,O=C(Cn1ccnc1)c1ccc(CCc2ccccc2)cc1,134 to 136
8,CCCCOP(=O)(CCCCC1(C(=O)NCCC)c2ccccc2-c2ncccc21)OCCCC (centres undefined),93.5 to 96
9,Cc1cc(C#N)c(Cl)nc1C,83 to 87
10,CCCc1nc(CO)c(C(=O)OCOC(=O)C(C)(C)C)n1Cc1ccc(-c2ccccc2-c2nnn[nH]2)cc1,> 60
11,CCOC(OCC)c1ncn(CCC(O)(c2ccc(F)cc2F)n2cncn2)n1 (centres undefined),85 to 87
12,CCC(CC)Nc1c(NCc2cc(C)cc(C#N)c2)c(=O)c1=O,248 to 250
13,O=C1CCC(=C2CCC(C3CCCCC3)CC2)CC1 (centres undefined),81 to 81.5
14,COC1(c2cccc(OCc3ccc4ccccc4c3)c2)CC(C)OC(C)C1 (centres undefined),105 to 107
15,CCCC=Cc1c(C(C)C)nc(C(C)C)c(CO)c1-c1ccc(S(C)=O)cc1 (centres undefined),133 to 135
16,NC(=O)c1ccc(-c2ccc(Cl)cc2)nc1,245 to 258
17,CC1OC(CN(C)C(=O)Nc2nnc(S(=O)(=O)N(C)C)s2)OC1C (centres undefined),133 to 134
18,c1ccc(OCCSCc2nnc(-c3ccc(OCCN4CCCCC4)cc3)o2)cc1,70
19,COC(=O)c1coc2cc(Oc3cc(COCc4ccccc4)ncn3)ccc12,85 to 86
20,COC(=O)c1cc(N2CCSCC2)c(C(F)(F)F)cc1[N+](=O)[O-],68 to 82
21,CC(O)C(NC(=O)OC(C)(C)C)C(=O)OCC(=O)c1ccccc1 (centres undefined),114
22,CCCOC1=Nc2c(ncn2-c2ccccc2)C2=N[C@@H](Cc3ccccc3)CN12,74 to 80
23,CCOC(=O)CC/C=C(\C)c1sccc1Br,62 to 64
24,CC(C)(C)c1cc(-n2nc3ccc(Sc4ccc5nn(-c6cc(C(C)(C)C)cc(C(C)(C)C)c6O)nc5c4)cc3n2)c(O)c(C(C)(C)C)c1,245 to 246

# Reference: a melting point compilation (Tetko et al.; mined from patent text by program, amines drawn as free bases though some values may be those of a salt)
